Experimental data from ChEMBL document CHEMBL4419178, “Yap1 inhibitors that target the interaction of yap1 with oct4” (2018).
Active and inactive are the calls of the source. The calls are words filed in the database; no cut-off is given here.

What was measured:
NCI-H1650 [1] = experiment: Inhibition of adherence-independent cell growth in human NCI-H1650 cells at 5 uM incubated for 33 days; assay type: functional, cell-based
[2] = target: Transcriptional coactivator YAP1 (Homo sapiens) (UniProt P46937); experiment: Inhibition of YAP1 in human NCI-H1650 cells assessed as reduction in c-Myc protein expression at 10 uM incubated for 72 hrs by Western blot analysis; assay type: cell-based
[3] = target: Transcriptional coactivator YAP1 (Homo sapiens) (UniProt P46937); experiment: Inhibition of YAP1 in human NCI-H1650 cells assessed as suppression of HK2 mRNA expression at 5 to 10 uM incubated for 72 hrs by RT-PCR method; assay type: cell-based
NCI-H1650 [4] = experiment: Effect on expression of Oct4 mRNA expression in human NCI-H1650 cells at 5 to 10 uM incubated for 72 hrs by RT-PCR method; assay type: cell-based; settings: nci-h1650, 72 h
[5] = target: Transcriptional coactivator YAP1 (Homo sapiens) (UniProt P46937); experiment: Inhibition of YAP1 in human NCI-H1703 cells assessed as suppression of Sox2 mRNA expression at 5 to 10 uM incubated for 72 hrs by RT-PCR method; assay type: cell-based
[6] = target: Transcriptional coactivator YAP1 (Homo sapiens) (UniProt P46937); experiment: Inhibition of YAP1 in human A549 cells assessed as reduction in c-Myc protein expression at 10 uM incubated for 72 hrs by Western blot analysis; assay type: cell-based
[7] = target: Transcriptional coactivator YAP1 (Homo sapiens) (UniProt P46937); experiment: Inhibition of YAP1 in human NCI-H1650 cells assessed as suppression of PD-L1 mRNA expression at 5 to 10 uM incubated for 72 hrs by RT-PCR method; assay type: cell-based
[8] = target: Transcriptional coactivator YAP1 (Homo sapiens) (UniProt P46937); experiment: Inhibition of YAP1 in human NCI-H1703 cells assessed as suppression of vimentin mRNA expression at 5 to 10 uM incubated for 72 hrs by RT-PCR method; assay type: cell-based
[9] = target: Transcriptional coactivator YAP1 (Homo sapiens) (UniProt P46937); experiment: Inhibition of YAP1 in human NCI-H1650 cells assessed as suppression of fibronectin mRNA expression at 5 to 10 uM incubated for 72 hrs by RT-PCR method; assay type: cell-based
[10] = target: Transcriptional coactivator YAP1 (Homo sapiens) (UniProt P46937); experiment: Inhibition of YAP1 in human NCI-H1650 cells assessed as suppression of PDK2 mRNA expression at 5 to 10 uM incubated for 72 hrs by RT-PCR method; assay type: cell-based
[11] = target: Transcriptional coactivator YAP1 (Homo sapiens) (UniProt P46937); experiment: Inhibition of YAP1 in human NCI-H1703 cells assessed as suppression of fibronectin mRNA expression at 5 to 10 uM incubated for 72 hrs by RT-PCR method; assay type: cell-based
NCI-H1703 [12] = experiment: Inhibition of YAP1/TEAD2 interaction in human NCI-H1703 cells assessed as suppression of CTGF mRNA expression at 5 to 10 uM incubated for 72 hrs by RT-PCR method; assay type: cell-based
NCI-H1975 = experiment: Cytotoxicity in gefitinib and erlotinib resistant human NCI-H1975 cells assessed as reduction in cell viability at 1 to 10 uM incubated for 72 hrs by MTT assay; assay type: functional, cell-based
[13] = target: Transcriptional coactivator YAP1 (Homo sapiens) (UniProt P46937); experiment: Inhibition of YAP1 in human NCI-H1650 cells assessed as suppression of vimentin mRNA expression at 5 to 10 uM incubated for 72 hrs by RT-PCR method; assay type: cell-based
[14] = target: Transcriptional coactivator YAP1 (Homo sapiens) (UniProt P46937); experiment: Inhibition of YAP1 in human A549 cells assessed as reduction in PDK2 protein expression at 10 uM incubated for 72 hrs by Western blot analysis; assay type: cell-based
NCI-H1703 [15] = experiment: Inhibition of adherence-independent cell growth in human NCI-H1703 cells at 10 uM incubated for 33 days; assay type: functional, cell-based
[16] = target: Transcriptional coactivator YAP1 (Homo sapiens) (UniProt P46937); experiment: Inhibition of YAP1 in human NCI-H1703 cells assessed as suppression of HK2 mRNA expression at 5 to 10 uM incubated for 72 hrs by RT-PCR method; assay type: cell-based
[17] = target: Transcriptional coactivator YAP1 (Homo sapiens) (UniProt P46937); experiment: Inhibition of YAP1 in human NCI-H1703 cells assessed as suppression of PD-L1 mRNA expression at 5 to 10 uM incubated for 72 hrs by RT-PCR method; assay type: cell-based
NCI-H1703 [18] = experiment: Effect on expression of Nanog mRNA expression in human NCI-H1703 cells at 5 to 10 uM incubated for 72 hrs by RT-PCR method; assay type: cell-based; settings: nci-h1703, 72 h
[19] = target: Transcriptional coactivator YAP1 (Homo sapiens) (UniProt P46937); experiment: Inhibition of YAP1 in human NCI-H146 cells assessed as suppression of HK2 mRNA expression at 5 to 10 uM incubated for 72 hrs by RT-PCR method; assay type: cell-based
[20] = target: Transcriptional coactivator YAP1 (Homo sapiens) (UniProt P46937); experiment: Inhibition of YAP1 in human NCI-H146 cells assessed as suppression of PDK2 mRNA expression at 5 to 10 uM incubated for 72 hrs by RT-PCR method; assay type: cell-based
[21] = target: Transcriptional coactivator YAP1 (Homo sapiens) (UniProt P46937); experiment: Inhibition of YAP1 in human A549 cells assessed as reduction in Sox2 protein expression at 10 uM incubated for 72 hrs by Western blot analysis; assay type: cell-based
[22] = target: Transcriptional coactivator YAP1 (Homo sapiens) (UniProt P46937); experiment: Inhibition of YAP1 in human NCI-H146 cells assessed as suppression of Sox2 mRNA expression at 5 to 10 uM incubated for 72 hrs by RT-PCR method; assay type: cell-based
[23] = target: Transcriptional coactivator YAP1 (Homo sapiens) (UniProt P46937); experiment: Inhibition of YAP1 in human NCI-H1703 cells assessed as suppression of PDK2 mRNA expression at 5 to 10 uM incubated for 72 hrs by RT-PCR method; assay type: cell-based
[24] = target: Transcriptional coactivator YAP1 (Homo sapiens) (UniProt P46937); experiment: Inhibition of YAP1 in human NCI-H1650 cells assessed as reduction in Sox2 protein expression at 10 uM incubated for 72 hrs by Western blot analysis; assay type: cell-based
NCI-H1650 [25] = experiment: Inhibition of YAP1/TEAD2 interaction in human NCI-H1650 cells assessed as suppression of CTGF mRNA expression at 5 to 10 uM incubated for 72 hrs by RT-PCR method; assay type: cell-based
NCI-H146 [26] = experiment: Inhibition of self-renewal capacity in methotrexate insensitive stem-like side-population cells of human NCI-H146 cells assessed as reduction in number of spheres at 2 uM incubated for 3 days after 7 days methotrexate exposure by sphere formation assay; assay type: functional
NCI-H146 [27] = experiment: Effect on expression of Nanog mRNA expression in human NCI-H146 cells at 5 to 10 uM incubated for 72 hrs by RT-PCR method; assay type: cell-based; settings: nci-h146, 72 h
[28] = target: Transcriptional coactivator YAP1 (Homo sapiens) (UniProt P46937); experiment: Inhibition of YAP1 in human NCI-H1650 cells assessed as suppression of Sox2 mRNA expression at 5 to 10 uM incubated for 72 hrs by RT-PCR method; assay type: cell-based
NCI-H146 [29] = experiment: Effect on expression of Oct4 mRNA expression in human NCI-H146 cells at 5 to 10 uM incubated for 72 hrs by RT-PCR method; assay type: cell-based; settings: nci-h146, 72 h
[30] = target: Transcriptional coactivator YAP1 (Homo sapiens) (UniProt P46937); experiment: Inhibition of YAP1 in human NCI-H1650 cells assessed as reduction in PDK2 protein expression at 10 uM incubated for 72 hrs by Western blot analysis; assay type: cell-based
NCI-H1650 [31] = experiment: Effect on expression of Nanog mRNA expression in human NCI-H1650 cells at 5 to 10 uM incubated for 72 hrs by RT-PCR method; assay type: cell-based; settings: nci-h1650, 72 h
NCI-H1650 [32] = experiment: Inhibition of adherence-independent cell growth in human NCI-H1650 cells at 10 uM incubated for 33 days; assay type: functional, cell-based
NCI-H1703 [33] = experiment: Effect on expression of Oct4 mRNA expression in human NCI-H1703 cells at 5 to 10 uM incubated for 72 hrs by RT-PCR method; assay type: cell-based; settings: nci-h1703, 72 h
NCI-H1703 [34] = experiment: Inhibition of adherence-independent cell growth in human NCI-H1703 cells at 5 uM incubated for 33 days; assay type: functional, cell-based
NCI-H1650 [35] = experiment: Inhibition of self-renewal capacity in stem-like side-population cells of human NCI-H1650 cells assessed as reduction in number of spheres at 1 to 20 uM incubated for 10 days by sphere formation assay; assay type: functional, cell-based
[36] = Lipophilicity, logP of the compound; assay type: physicochemical; settings: octanol/water
[37] = target: Transcriptional coactivator YAP1 (Homo sapiens) (UniProt P46937); experiment: Inhibition of YAP1 (unknown origin) assessed as disruption in YAP1/OCT4 interaction at 5 uM by ELISA relative to control
[38] = target: Transcriptional coactivator YAP1 (Homo sapiens) (UniProt P46937); experiment: Inhibition of YAP1 (unknown origin) assessed as disruption in YAP1/OCT4 interaction at 10 uM by ELISA relative to control
[39] = target: Transcriptional coactivator YAP1 (Homo sapiens) (UniProt P46937); experiment: Inhibition of YAP1 (unknown origin) assessed as disruption in YAP1/OCT4 interaction at 50 uM by cell based assay
NCI-H2286 = experiment: Cytotoxicity in human NCI-H2286 cells assessed as reduction in cell viability at 5 to 50 uM incubated for 96 hrs by MTT assay; assay type: functional, cell-based
NCI-H1650 [40] = experiment: Cytotoxicity in human NCI-H1650 cells assessed as reduction in cell viability at 1 to 20 uM incubated for 72 hrs by MTT assay; assay type: functional, cell-based
A549 = experiment: Cytotoxicity in human A549 cells assessed as reduction in cell viability at 1 to 20 uM incubated for 72 hrs by MTT assay; assay type: functional, cell-based
NCI-H2170 = experiment: Cytotoxicity in human NCI-H2170 cells assessed as reduction in cell viability at 5 to 50 uM incubated for 96 hrs by MTT assay; assay type: functional, cell-based
NCI-H1650 [41] = experiment: Inhibition of self-renewal capacity in stem-like side-population cells of human NCI-H1650 cells assessed as reduction in number of spheres at 5 to 50 uM incubated for 10 days by sphere formation assay; assay type: functional, cell-based

Sequence of Transcriptional coactivator YAP1 (Homo sapiens) (P46937 whole entry): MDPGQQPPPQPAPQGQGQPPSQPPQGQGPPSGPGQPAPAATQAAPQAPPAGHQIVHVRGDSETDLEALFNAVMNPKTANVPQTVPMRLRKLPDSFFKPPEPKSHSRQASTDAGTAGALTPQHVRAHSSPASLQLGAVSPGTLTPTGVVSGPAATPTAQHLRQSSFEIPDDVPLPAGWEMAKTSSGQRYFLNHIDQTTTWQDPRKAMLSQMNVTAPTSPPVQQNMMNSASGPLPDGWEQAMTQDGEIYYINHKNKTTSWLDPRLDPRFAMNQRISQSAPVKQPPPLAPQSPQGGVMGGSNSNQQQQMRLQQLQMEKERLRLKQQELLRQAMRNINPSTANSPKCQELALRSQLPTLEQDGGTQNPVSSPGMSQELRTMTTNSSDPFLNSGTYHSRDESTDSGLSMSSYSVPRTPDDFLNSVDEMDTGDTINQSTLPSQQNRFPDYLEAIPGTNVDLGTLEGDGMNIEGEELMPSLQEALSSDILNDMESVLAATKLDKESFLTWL

COC(=O)[C@H](Cc1ccc(OCc2ccccc2)cc1)NC(=O)CC1CCN(C(=O)CCCc2ccccc2)CC1
inhibition (NCI-H1650 [1]): Active | inhibition [2]: Active | inhibition [3]: Active | Activity (NCI-H1650 [4]): Non-Toxic | inhibition [5]: Active | inhibition [6]: Active | inhibition [7]: Active | inhibition [8]: Active | inhibition [9]: Active | inhibition [10]: Active | inhibition [11]: Active | inhibition (NCI-H1703 [12]): inactive | Activity (NCI-H1975): Active | inhibition [13]: Active | inhibition [14]: Active | inhibition (NCI-H1703 [15]): Active | inhibition [16]: Active | inhibition [17]: Active | Activity (NCI-H1703 [18]): Non-Toxic | inhibition [19]: Active | inhibition [20]: Active | inhibition [21]: Active | inhibition [22]: Active | inhibition [23]: Active | inhibition [24]: Active | inhibition (NCI-H1650 [25]): inactive | inhibition (NCI-H146 [26]): Active | Activity (NCI-H146 [27]): Non-Toxic | inhibition [28]: Active | Activity (NCI-H146 [29]): Non-Toxic | inhibition [30]: Active | Activity (NCI-H1650 [31]): Non-Toxic | inhibition (NCI-H1650 [32]): Active | Activity (NCI-H1703 [33]): Non-Toxic | inhibition (NCI-H1703 [34]): Active

COC(=O)[C@H](Cc1ccc(OCc2ccccc2)cc1)NC(=O)CC1CCN(C(=O)OC(C)(C)C)CC1
inhibition (NCI-H1650 [35]): Active | logP [36]: 3.9 to 3.94 | inhibition [37]: 72.6% | inhibition [38]: 80.8% | inhibition [39]: > 75%

COC(=O)[C@H](Cc1ccc(OCc2ccccc2)cc1)NC(=O)CC1CCN(C(=O)CCc2cc(OC)c(OC)c(OC)c2)CC1
Activity (NCI-H2286): Active | Activity (NCI-H1650 [40]): Active | Activity (A549): Active | Activity (NCI-H2170): Active | inhibition (NCI-H1650 [41]): Active
